Measurements: publication PMC2833169, “Anti-malarial activity of a non-piperidine library of next-generation quinoline methanols” (Malaria Journal, 2010)
pIC50: −log10 of the molar value. Converted amounts (≈) assume the structure as drawn.

Columns and labels:
[1] = tested on: MDR1-transfected MDCK cell monolayers; assay: in vitro; conditions: dog, MDCK-MDR1, 2 h, 5 μM, pH 7.4
Protocol: (§1) For this reason, the apparent permeability of selected compounds across MDR1-transfected MDCK cell monolayers was determined. This assay is an in vitro surrogate of the blood-brain barrier.
(§2) Permeability was determined by Absorption Systems (Exton, PA). MDR1-MDCK cell monolayers were grown to confluence on collagen-coated, microporous, polycarbonate membranes in 12-well Costar Transwell plates. […] The permeability assay buffer was Hanks Balanced Salt Solution containing 10 mM HEPES and 15 mM glucose at a pH of 7.4. A known p-glycoprotein inhibitor cyclosporin A (CSA) was also added to the assay buffer at 10 μM. Bovine serum albumin (1%) was added to the receiver well. The dosing solution concentrations of the test compounds were 5.0 μM in the assay buffer. All cell monolayers were first pre-incubated for 30 minutes with assay buffer. After 30 minutes, the buffer was removed, replaced with fresh buffer, and time was recorded as 0. […] Cell monolayers were dosed on the apical side (A-to-B) or basolateral side (B-to-A) and incubated at 37°C with 5% CO2 in a humidified incubator. After 2 hours, aliquots were taken from the receiver chambers. Samples were taken from the donor chamber at 0 and 2 hours. Each determination was performed in duplicate. The lucifer yellow flux was also measured for each monolayer to ensure no damage was inflicted to the cell monolayers during the flux period. All samples were assayed by LC/MS/MS using electrospray ionization.
(§3) Apparent permeability in the apical (A-B direction), PappA-B, and percent recovery are reported. Apparent permeability is a measure of the rate of transport across the cell monolayer. Percent recovery refers to the amount of compound recoverable at the end of the assay. Low recovery may indicate non-specific binding to assay plates, instability or accumulation in the cell pellet.
(§4) The apparent permeability, Papp, and percent recovery were calculated as follows:
(§5) Papp = (dCr/dt) × Vr/(A × C0) (1)
(§6) Percent Recovery = 100 × ((Vr × Cr^final) + (Vd × Cd^final))/(Vd × […]) (2)

CYP450 3A4 = molecular target: T1, CYP450 3A4 (Homo sapiens, UniProt P08684); assay: CYP450 inhibition kit (drug-drug interaction), 3A4; format: biochemical
T1 construct: purchased BD Gentest (Franklin Lakes, NJ)
Protocol: Low IC50s against specific cytochrome P450 isoforms may indicate the potential for a harmful drug interaction to occur in vivo with substrates of that isoform. A lack of metabolic stability in vitro may indicate potential metabolic instability in vivo, and, therefore, a shorter half-life. Drug interaction potential was evaluated in vitro using BD Gentest (Franklin Lakes, NJ) CYP450 inhibition kits as recommended by the manufacturer. Metabolic stability assessments were conducted using in vitro liver microsomes. […] The reaction is started with the addition of 1 U/mL glucose-6-phosphate dehydrogenase G6PD. The mixture is incubated on a shaking platform at 37°C, and aliquots are taken and quenched with the addition of an equal volume of cold acetonitrile at 0, 10, 20, 30, and 60 min. Samples are centrifuged at 3700 rpm for […] at 20°C to remove debris. Sample quantification is carried out by LC/MS, and metabolic half-life is calculated by log plots of the total ion chromatograph area remaining.

in vitro [2] = conditions: dog, MDCK-MDR1, pH 7.4
Protocol: as §1, §2, §3, §4, §5, §6

in vitro [3] = conditions: mouse

T1 sequence (P08684 whole entry): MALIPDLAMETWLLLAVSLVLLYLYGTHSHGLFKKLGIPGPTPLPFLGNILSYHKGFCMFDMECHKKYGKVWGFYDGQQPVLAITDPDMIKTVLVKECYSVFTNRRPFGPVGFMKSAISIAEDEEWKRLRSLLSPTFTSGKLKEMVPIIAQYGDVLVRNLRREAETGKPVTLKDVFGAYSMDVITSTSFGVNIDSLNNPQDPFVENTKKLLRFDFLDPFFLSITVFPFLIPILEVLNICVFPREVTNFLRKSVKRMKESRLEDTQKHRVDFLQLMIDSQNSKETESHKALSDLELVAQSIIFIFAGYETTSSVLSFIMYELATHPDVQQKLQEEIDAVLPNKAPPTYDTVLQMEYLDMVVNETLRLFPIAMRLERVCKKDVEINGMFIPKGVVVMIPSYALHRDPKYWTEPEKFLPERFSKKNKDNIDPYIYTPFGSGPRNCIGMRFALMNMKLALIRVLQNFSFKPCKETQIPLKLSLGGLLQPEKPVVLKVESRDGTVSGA

Structure (SMILES)	% recovery (MDCK-MDR1 permeability assay) [1] [%]	PappA-B MDCK-MDR1 [1]	pIC50 (CYP450 3A4)	Papp A→B at 2 h, 5 μM (in vitro [2]) [×10⁻⁶ cm/s]	CC50 (in vitro [3]) [µg/mL]
CNCC(O)c1cc(C(F)(F)F)nc2c(C(F)(F)F)cccc12 (stereo not drawn) [WR308245]	59	24 10^-6 cm/s	4.59		
CC(C)NCC(O)c1cc(C(F)(F)F)nc2c(C(F)(F)F)cccc12 (stereo not drawn) [WR308257]	69		< 4.40	25	
CSCCCNCC(O)c1cc(C(F)(F)F)nc2c(C(F)(F)F)cccc12 (stereo not drawn) [WR308278]	54	38 10^-6 cm/s	4.80		
OC(CNCCNCc1ccccc1)c1cc(C(F)(F)F)nc2c(C(F)(F)F)cccc12 (stereo not drawn) [WR308396]		8.4 10^-6 cm/s	5.48		8.28 (≈ 18.1 µM)
